Laboratory results: patent US7244727B2, “Fused bicyclic nitrogen-containing heterocycles” (Japan Tobacco Inc., priority 2002, dated 2007)

target: T1, human DGAT1 (Homo sapiens, UniProt O75907); experiment: DGAT Scintillation Proximity Assay (SPA) with membranes of insect cells expressing human flagtag DGAT1; assay type: biochemical; conditions: read-out: hDGAT1 IC50
T1 construct: made in house; host or cells: insect cells (sf9, sf21 or High Five) infected with baculovirus; total cell membranes
T1 sequence (O75907 1-488): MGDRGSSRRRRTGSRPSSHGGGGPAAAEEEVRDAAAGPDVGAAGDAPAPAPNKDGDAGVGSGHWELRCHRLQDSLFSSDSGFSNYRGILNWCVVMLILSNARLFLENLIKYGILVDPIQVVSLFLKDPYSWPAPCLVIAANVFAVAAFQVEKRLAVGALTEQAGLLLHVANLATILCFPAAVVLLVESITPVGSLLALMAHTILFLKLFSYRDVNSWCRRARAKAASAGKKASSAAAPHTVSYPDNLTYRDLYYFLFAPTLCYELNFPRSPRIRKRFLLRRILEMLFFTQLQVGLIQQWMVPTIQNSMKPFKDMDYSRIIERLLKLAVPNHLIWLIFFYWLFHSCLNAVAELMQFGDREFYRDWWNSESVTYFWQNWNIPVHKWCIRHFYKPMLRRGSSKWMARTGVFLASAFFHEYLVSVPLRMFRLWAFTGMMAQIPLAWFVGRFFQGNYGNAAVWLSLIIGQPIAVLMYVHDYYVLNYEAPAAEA
Protocol: In such an assay human DGAT1 is cloned from a human liver cDNA library. PCR is used to add a restriction site and flag epitope at the most 5′ end and a restriction site at the 3′ end of the sequence. Thereafter, human flagtag (FT) DGAT1 baculovirus may be generated using a Bac-to-Bac Baculovirus Expression System® (Invitrogen). Insect cells (e.g., sf9, sf2 1, or High Five) are infected for 24 to 72 h and collected by centrifugation. Cell pellets are resuspended in homogenization buffer and lysed using a homogenization device, such as a Microfluidizer. Total cell membranes are collected by ultracentrifugation at 45,000 rpm for 1 h.
A small aliquot (0.2 μg/well) of membrane is incubated with 10 μM compound or mercuric chloride (as positive control for inhibition) in the presence of enzyme substrate, dioleoyl glycerol (200 μM) in 384 well plates, final volume 50 gL per well. […] The reaction is stopped by adding Wheat Germ Agglutinin (WGA) SPA beads (0.2 mg) in mercuric chloride. Cell membranes are allowed to couple to the beads overnight. The signal can be measured using, for example, a Chemiluminescence Image Plate Reader (CLIPR) or TopCount device.

| IC50 | SMILES |
| --- | --- |
| 10 to 100 nM | Cc1nc(N)c2c(n1)OC(C)(C)C(c1ccc(C3CCC(C(C)C(=O)O)CC3)cc1)=N2 (single isomer, unassigned) [Example 9] |
| > 100 nM | Nc1ncnc2c1N=C(c1ccccc1Br)CO2 [Example 1-5] |
| > 100 nM | Nc1ncnc2c1N=C(c1ccc(Br)s1)CO2 [Example 1-24] |
| 10 to 100 nM | CN(C)C(=O)C=C1CCC(c2ccc(C3=Nc4c(N)ncnc4OC3(C)C)cc2)CC1 (centres unmarked) [Example 2-44] |
| 10 to 100 nM | CC1(C)Oc2ncnc(N)c2N=C1c1ccc(C2CCC(=CC(N)=O)CC2)cc1 (centres unmarked) [Example 2-46] |
| 10 to 100 nM | CC1(C)Oc2ncnc(N)c2N=C1c1ccc(C2CCC(=CC(=O)NCCO)CC2)cc1 (centres unmarked) [Example 2-48] |
| 10 to 100 nM | Cc1nc(N)c2c(n1)OC(C)(C)C(c1ccc([C@H]3CC[C@H](CNC(=O)COC(=O)CCC(=O)O)CC3)cc1)=N2 [Example 2-49] |
| 10 to 100 nM | CN1CCN(C(=O)C=C2CCC(c3ccc(C4=Nc5c(N)ncnc5OC4(C)C)cc3)CC2)CC1 (centres unmarked) [Example 2-50] |
| 10 to 100 nM | CN(C)CCNC(=O)C=C1CCC(c2ccc(C3=Nc4c(N)ncnc4OC3(C)C)cc2)CC1 (centres unmarked) [Example 2-51] |
| 10 to 100 nM | CC1(C)Oc2ncnc(N)c2N=C1c1ccc([C@H]2CC[C@H](CN)CC2)cc1 [Example 2-63] |
| > 100 nM | CC1(C)Oc2ncnc(N)c2NC1c1ccc([C@H]2CC[C@H](CCO)CC2)cc1 (some centres unmarked) [Example 2-81] |
| > 100 nM | CC1(C)Oc2ncnc(N)c2N=C1c1ccc(C2CCC(N3CCCC3)CC2)cc1 (centres unmarked) [Example 2-89] |
| > 100 nM | CC1(C)Oc2ncnc(N)c2N=C1c1ccc(C2CCC(N3CCCCC3)CC2)cc1 (centres unmarked) [Example 2-90] |
| 10 to 100 nM | CC1(C)Oc2ncnc(N)c2N=C1c1ccc([C@H]2CC[C@H](CNC(=O)CO)CC2)cc1 [Example 2-91] |
| 10 to 100 nM | COc1ccc2[nH]c(C[C@H]3CC[C@H](c4ccc(C5=Nc6c(N)ncnc6OC5(C)C)cc4)CC3)nc2c1 [Example 2-121] |
| < 10 nM | CC(C)(C)OC(=O)NS(=O)(=O)NC[C@H]1CC[C@H](c2ccc(C3=Nc4c(N)ncnc4OC3(C)C)cc2)CC1 [Example 2-125] |
| < 10 nM | Cc1nc(N)c2c(n1)OC(C)(C)C(c1ccc([C@H]3CC[C@H](CC4=NS(=O)ON4)CC3)cc1)=N2 (some centres unmarked) [Example 2-153] |
| 10 to 100 nM | Cc1nc(N)c2c(n1)OC(C)(C)C(c1ccc([C@H]3CC[C@H](Cc4cc(O)[nH]n4)CC3)cc1)=N2 [Example 2-155] |
| < 10 nM | Cc1nc(N)c2c(n1)OC(C)(C)C(c1ccc([C@H]3CC[C@H](Cn4oc(=O)[nH]c4=O)CC3)cc1)=N2 [Example 2-157] |
| 10 to 100 nM | Cc1nc(N)c2c(n1)OC(C)(C)C(c1ccc([C@H]3CC[C@H](CN4CC(C)(C)C(O)C4=O)CC3)cc1)=N2 (some centres unmarked) [Example 2-167] |
| 10 to 100 nM | Cc1nc(N)c2c(n1)OC(C)(C)C(c1ccc([C@H]3CC[C@H](Cc4nc(=O)on4C)CC3)cc1)=N2 [Example 2-168] |
| > 100 nM | Cc1nc(N)c2c(n1)OC(C)(C)C(c1ccc([C@H]3CC[C@H](CN4CCNC4=O)CC3)cc1)=N2 [Example 2-171] |
| 10 to 100 nM | CN1CCN(C(=O)CC[C@H]2CC[C@H](c3ccc(C4=Nc5c(N)ncnc5OC4(C)C)cc3)CC2)CC1 [Example 2-181] |
| 10 to 100 nM | CC1(C)Oc2ncnc(N)c2N=C1c1ccc([C@H]2CC[C@H](CO)CC2)cc1 [Example 2-216] |
| > 100 nM | CC1(C)Oc2ncnc(N)c2NC1c1ccc([C@H]2CC[C@H](CO)CC2)cc1 (some centres unmarked) [Example 2-223] |
| > 100 nM | CC1(C)Oc2ncnc(N)c2N=C1c1ccc([C@H]2CC[C@H](CN3CCC(O)CC3)CC2)cc1 [Example 2-225] |
| > 100 nM | CC1(C)Oc2ncnc(N)c2N=C1c1ccc([C@H]2CC[C@H](CN3CCC(O)(c4ccccc4)CC3)CC2)cc1 [Example 2-226] |
| 10 to 100 nM | CN1CCN(C[C@H]2CC[C@H](c3ccc(C4=Nc5c(N)ncnc5OC4(C)C)cc3)CC2)CC1 [Example 2-230] |
| > 100 nM | CC(C)(C)OC(=O)N1CCN(C[C@H]2CC[C@H](c3ccc(C4=Nc5c(N)ncnc5OC4(C)C)cc3)CC2)CC1 [Example 2-242] |
